Measurements published in patent US5374641A, “N-(3-pyridylalkyl)sulfonamide compounds which have useful pharmaceutical activity” (Terumo Kabushiki Kaisha, priority 1991, dated 1994).

How the values were obtained:
[1] = test system: tracheal smooth muscle contraction caused by the U-46619; experiment: Test Example 3: Competitive activity against TXA2.PGH2 (tracheal smooth muscle contraction caused by U-46619); type: cell-based, Hartley guinea pig; settings: guinea pig trachea
Procedure: In vitro competitive activity (IC50) of the derivative of the present invention against TXA2· PGH2 was measured as follows.
(§1) Sections of tracheae excised from Hartley guinea pig males of 300 to 500 g in weight were suspended with a load of 0.3 g in Tyrode solution (30° C.) contained in a Magnus vessel which was aerated with a mixed gas system of 95% oxygen and 5% carbon dioxide. After about 1 hour of stabilization, U-46619 (a TXA2· PGH2 analog, manufactured by Cayman Chemical Co., Inc.) was added to the solution in a concentration of 10^-7 M. Thereafter, effect of the addition of the inventive N-(3-pyridylalkyl)sulfonamide derivative obtained in Example 4 on the tracheal smooth muscle contraction caused by the U-46619 was measured and the IC50 value was calculated.

[2] = test system: platelet aggregation caused by U-46619; experiment: Test Example 1: Platelet aggregation inhibiting activity (human PRP, U-46619); type: cell-based; settings: for IC50: Platelet, 320 nM U-46619, 37° C., read-out: Inhibitory effect against platelet aggregation caused by U-46619 (IC50); for platelet aggregation inhibiting activity (in words): U-46619
Procedure: (§2) A blood sample was collected from human fore arm using a syringe containing 3.8% sodium citrate solution (1/10 volume of the blood to be collected) and centrifuged to obtain platelet rich plasma (PRP; 3 ×10^5 platelets/μ1).
(§3) Platelet aggregation was measured using an aggregometer (Hematracer VI, Niko Bioscience Co., Ltd.) by putting 200 µl of the thus prepared PRP and 23.75 µl of physiological saline in a cuvette, setting the cuvette into the aggregometer and incubating the contents at 37° C. for 2 minutes, adding 1.25 μ1 dimethyl sulfoxide (DMSO) solution of each of the N-(3-pyridylalkyl)sulfonamide derivatives obtained in Examples 1, 3, 4, 6 and 8 and incubating for 3 minutes, and then adding U-46619 (Cayman Chemical Co., Inc.) which is a stable PGG2/ H2 derivative having a strong platelet aggregation causing activity.
In this instance, the term "IC50 "as used herein means concentration of the N-(3-pyridylalkyl)sulfonamide derivative of the present invention required to inhibit 50% of the platelet agglutination when platelet aggregation without introducing the inventive derivative was defined as 100%.

thromboxane synthetase [3] = biological target: T1, thromboxane synthetase (Homo sapiens, UniProt P24557); experiment: Test Example 2: Thromboxane synthetase inhibiting activity (human PRP, thrombin, RIA); type: cell-based; settings: 20 U/ml thrombin, RIA, read-out: Inhibition of thromboxane A2 synthesis (IC50)
T1 sequence (P24557 1-533): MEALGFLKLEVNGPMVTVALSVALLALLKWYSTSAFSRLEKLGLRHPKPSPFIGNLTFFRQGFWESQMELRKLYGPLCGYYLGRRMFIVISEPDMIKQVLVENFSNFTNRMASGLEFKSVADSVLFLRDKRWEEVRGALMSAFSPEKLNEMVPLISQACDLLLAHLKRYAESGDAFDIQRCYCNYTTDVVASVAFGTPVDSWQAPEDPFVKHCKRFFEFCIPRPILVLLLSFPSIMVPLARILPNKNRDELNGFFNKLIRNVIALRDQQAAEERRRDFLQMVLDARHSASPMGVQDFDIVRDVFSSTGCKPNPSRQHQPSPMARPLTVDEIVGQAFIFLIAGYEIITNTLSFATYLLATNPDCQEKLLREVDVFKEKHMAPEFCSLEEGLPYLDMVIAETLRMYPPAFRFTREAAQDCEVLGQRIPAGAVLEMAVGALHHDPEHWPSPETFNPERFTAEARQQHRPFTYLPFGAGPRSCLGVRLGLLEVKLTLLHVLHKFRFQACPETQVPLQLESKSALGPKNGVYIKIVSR
Procedure: as §2
(§4) A 200 μ1 portion of the thus prepared PRP and 23.75 µl of physiological saline were put in a cuvette, the cuvette was set into the aforementioned aggregometer and the contents in the cuvette were incubated at 37° C. for 2 minutes. Thereafter, 1.25 μ1 dimethyl sulfoxide (DMSO) solution of each of the N-(3-pyridylalkyl)sulfonamide derivatives obtained in Examples 1, 3 and 7 was put in the cuvette and incubated for 3 minutes, followed by the addition of 20 U/ml solution of thrombin to cause platelet aggregation. A portion of the supernatant after aggregation reaction was mixed with diethyl ether/methanol/0.2M citric acid (30:4:1 ), and the thus formed thromboxane A2 was extracted and its quantity was analyzed by RIA using a kit of Amersham.

[4] = test system: tracheal smooth muscle contraction caused by the U-46619; experiment: Test Examples 8: Competitive activity against TXA2.PGH2 (tracheal smooth muscle contraction caused by U-46619); type: cell-based, Hartley guinea pig; settings: guinea pig trachea
Procedure: In vitro competitive activity (IC50) of the derivative of the present invention against TXA2 ·PGH2 was measured as follows.
as §1, with “TXA2 ·PGH2” for “TXA2· PGH2”, “Inc. )” for “Inc.)”

thromboxane synthetase [5] = biological target: T1, thromboxane synthetase; experiment: Test Example 7: Thromboxane synthetase inhibiting activity (human PRP, thrombin, RIA); type: cell-based
Procedure: A blood sample was collected from human fore arm using a syringe containing 3.8% sodium citrate solution (1/10 volume of the blood to be collected) and centrifuged to obtain platelet rich plasma (PRP; 3×10^5 platelets/μl ).
as §4, with “200 μl” for “200 μ1”, “23.75 μl” for “23.75 µl”, “Examples 36, 37, 38” for “Examples 1, 3”, “and 40” for “and 7”, “acid (30:4:1),” for “acid (30:4:1 ),”

[6] = test system: platelet aggregation caused by U-46619; experiment: Test Examples 6: Platelet aggregation inhibiting activity (human PRP, U-46619); type: cell-based
Procedure: A blood sample was collected from human fore arm using a syringe containing 3.8% sodium citrate solution (1/10 volume of the blood to be collected) and centrifuged to obtain platelet rich plasma (PRP; 3×10^5 platelets/μl).
as §3, with “200 μof” for “200 µl of”, “23.75 μl” for “23.75 µl”, “1.25 μl” for “1.25 μ1”, “Examples 35, 36, 37” for “Examples 1, 3, 4, 6”, “and 42” for “and 8”, “stable PGG2 /H2” for “stable PGG2/ H2”
In this instance, the term "IC50 " as used herein means concentration of the N-(3-pyridylalkyl)sulfonamide derivative of the present invention required to inhibit 50% of the platelet aggregation when platelet aggregation without introducing the inventive derivative was defined as 100%.

[7] = Cavia porcellus, U-46619 10^-7 M, in vitro

| SMILES | in vitro competitive activity against TXA2.PGH2 (in words) ([1]; U-46619) | IC50 [2] | platelet aggregation inhibiting activity (in words) [2] | IC50 (thromboxane synthetase [3]) | IC50 [1, 7] | IC50 [4, 7] | in vitro competitive activity against TXA2.PGH2 (in words) ([4]; U-46619) | IC50 (thromboxane synthetase [5]; 20 U/ml thrombin, RIA, read-out: Inhibition of thromboxane A2 synthesis (IC50)) | thromboxane synthetase inhibiting activity (in words) (thromboxane synthetase [5]; thrombin) | IC50 ([6]; Platelet, 320 nM U-46619, 37° C., read-out: Inhibitory effect against platelet aggregation caused by U-46619 (IC50)) | platelet aggregation inhibiting activity (in words) ([6]; U-46619) |
| --- | --- | --- | --- | --- | --- | --- | --- | --- | --- | --- | --- |
| CCOC(=O)COc1ccc(C(CNS(=O)(=O)c2ccc(Cl)cc2)c2cccnc2)cc1 (stereo not shown) [Example 4, ethyl 4-[2-(4-chlorobenzenesulfonamido)-1-(3-pyridyl)ethyl]phenyloxyacetate] | excellent in vitro competitive activity | 51 µM | markedly high platelet aggregation inhibiting activity | 0.033 µM | – | – | – | – | – | – | – |
| O=C(O)COc1ccc(C(CNS(=O)(=O)c2ccc(Cl)cc2)c2cccnc2)cc1 (stereo not shown) [Example 5, 4-[2-(4-chlorobenzenesulfonamido)-1-(3-pyridyl)ethyl]phenyloxyacetic acid] | – | 16 µM | markedly high platelet aggregation inhibiting activity | – | 6.7 µM | – | – | – | – | – | – |
| CCOC(=O)/C(C)=C/c1ccc(C(CNS(=O)(=O)c2ccc(Cl)cc2)Cc2cccnc2)cc1 (stereo not drawn) [Example 37, ethyl 4-[1-(4-chlorobenzenesulfonamido)-3-(3-pyridyl)-2-propyl]-α-methylcinnamate] | – | – | – | – | – | 0.088 µM | excellent in vitro competitive | 8.9 µM | excellent thromboxane synthetase inhibiting activity | 66 µM | markedly high platelet aggregation inhibiting activity |
